The text below walks through data of ChEMBL document CHEMBL1201862, “PubChem BioAssay data set” (2004).

Test systems include HOP-62; UACC-62; CAKI-1; HT-29; SNB-19; U-251; CCRF-CEM; SN12C; SNB-75; OVCAR-8; Malme-3M; SK-OV-3; NCI-H23; HL-60; MOLT-4; HCC 2998; SF-268; NCI-H522.
What all share (assay): growth of human tumour cells (NCI), 48 h

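96-well plates; 48 h exposure; 5 concentrations. Endpoints by linear interpolation between flanking doses. Not reached: highest tested concentration assigned. GI50: concentration for 50% inhibition of growth.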 The source made the active and inactive calls. Cut-off read from the data, not from the text of the source: active = GI50 up to about 1.1 µM and inactive = higher.

Turning to `COc1cc(C2C3=C(CCC3=O)Oc3cc4c(cc32)OCO4)cc(OC)c1OC` (stereo not drawn), the GI50 in the assay with HOP-62 is 0.0324 µM (active); with UACC-62 it was 0.141 µM (active); in the assay on CAKI-1 it was 0.222 µM (active); in the assay with HT-29, 0.279 µM (active); in the assay on SNB-19, 0.692 µM (active); with U-251, 0.366 µM (active). The GI50 in the assay with CCRF-CEM was 0.318 µM (active); in the assay with SN12C it was 0.593 µM (active); in the assay with SNB-75, 0.038 µM (active); with OVCAR-8, 0.596 µM (active); in the assay with Malme-3M it was 1.44 µM (inactive); with SK-OV-3, 0.28 µM (active). For the same molecule, the GI50 in the assay on NCI-H23 was 0.39 µM (active); in the assay with HL-60 it was 0.204 µM (active).

Consider `Cc1cc(N(CCC#N)CCC#N)ccc1/N=N/c1cccc(C(=O)O)c1`, for which the GI50 is > 100 µM (inactive) with HOP-62; 60.5 µM (inactive) in the assay with UACC-62; > 100 µM (inactive) in the assay with MOLT-4; > 100 µM (inactive) in the assay on CAKI-1; > 100 µM (inactive) in the assay with HT-29; > 100 µM (inactive) in the assay with U-251. The GI50 is > 100 µM (inactive) in the assay on CCRF-CEM; > 100 µM (inactive) in the assay with SN12C; 34.1 µM (inactive) with SNB-75; > 100 µM (inactive) in the assay with OVCAR-8; > 100 µM (inactive) with HCC 2998; > 100 µM (inactive) with SF-268. The GI50 in the assay with Malme-3M was 83 µM (inactive); with SK-OV-3, > 100 µM (inactive); in the assay on NCI-H522, 38.8 µM (inactive); in the assay on NCI-H23, > 100 µM (inactive); in the assay on HL-60, > 100 µM (inactive).

Take `COc1cc(OC)c(C#N)c(OC)c1C`: the GI50 with HOP-62, in the assay on UACC-62, in the assay with MOLT-4, in the assay on CAKI-1, in the assay with HT-29 and in the assay on SNB-19 was > 100 µM (inactive) in each case. Moreover, the GI50 in the assay with U-251, with CCRF-CEM, in the assay with SN12C, in the assay with OVCAR-8, in the assay on SF-268 and in the assay with Malme-3M was > 100 µM (inactive) in each case. Also, the GI50 in the assay with SK-OV-3, in the assay with NCI-H23 and with HL-60 was > 100 µM (inactive) each time.

For the molecule `O=C(c1ccc(O)cc1O)C1C(c2ccc(O)cc2)OC(c2ccc(O)cc2)C1C(=O)c1ccc(O)cc1O` (stereo not drawn), the GI50 in the assay with HOP-62 was 5.26 µM (inactive); in the assay with CAKI-1 it was 45.6 µM (inactive); with HT-29, 34.2 µM (inactive); in the assay with SNB-19, 20.6 µM (inactive); with U-251, 16.5 µM (inactive); in the assay on SN12C it was > 10 µM (inactive). The GI50 was 16.6 µM (inactive) in the assay on SNB-75; 21.8 µM (inactive) in the assay on OVCAR-8; 13.8 µM (inactive) with HCC 2998; 17.1 µM (inactive) in the assay on SF-268; 14.2 µM (inactive) in the assay with Malme-3M; 16.5 µM (inactive) in the assay on NCI-H522. Besides, the GI50 in the assay with NCI-H23 is 30 µM (inactive); with HL-60, 17.8 µM (inactive).

Turning to `O=C(c1ccccc1)[C@H]1Nc2ccc(Cl)cc2[C@H]2OCCC[C@@H]12`, the GI50 in the assay on HOP-62 was 18 µM (inactive); in the assay with UACC-62, 17.8 µM (inactive); in the assay with MOLT-4, 16.8 µM (inactive); in the assay on CAKI-1, 23 µM (inactive); with HT-29, 18.5 µM (inactive); in the assay with SNB-19, 27.6 µM (inactive). The GI50 in the assay on U-251 was 17.3 µM (inactive); in the assay with SN12C it was 19.7 µM (inactive); with OVCAR-8 it was 20.9 µM (inactive); in the assay with HCC 2998 it was 22.2 µM (inactive); with SF-268, 19 µM (inactive); with Malme-3M, 25.6 µM (inactive). Further, the values for the GI50 in the assay on NCI-H522 and in the assay with NCI-H23 were 14.1 µM (inactive) and 24.7 µM (inactive), respectively.

For the molecule `CN1OC(=O)N(C)C1c1ccccc1` (stereo not drawn), the GI50 in the assay on HOP-62, with UACC-62, in the assay with MOLT-4, with HT-29, in the assay with SNB-19 and with U-251 was > 100 µM (inactive) each time. For the same molecule, the GI50 in the assay on CCRF-CEM, in the assay with SN12C, in the assay with SNB-75, with OVCAR-8, in the assay with HCC 2998 and with SF-268 was > 100 µM (inactive) in each case. The GI50 in the assay with Malme-3M, in the assay on SK-OV-3, with NCI-H522, in the assay with NCI-H23 and in the assay with HL-60 was > 100 µM (inactive) in each case.

For `CCOC(=O)CC(=O)ON(C)C(=O)Cc1ccccc1`, the GI50 with HOP-62, in the assay with UACC-62, with CAKI-1, with HT-29, in the assay with SNB-19 and in the assay with U-251 was > 100 µM (inactive) throughout. Besides, the GI50 in the assay with CCRF-CEM, with SN12C, in the assay on OVCAR-8, with SF-268, in the assay with Malme-3M and in the assay with SK-OV-3 was > 100 µM (inactive) in each case. Also, the GI50 with NCI-H522, in the assay on NCI-H23 and in the assay on HL-60 was > 100 µM (inactive) throughout.

`O=C(Nc1ccccc1)C(=O)C(C(=O)c1ccccc1F)C1OC(=O)c2ccccc21` (stereo not drawn): the GI50 with HOP-62 is 42.8 µM (inactive); in the assay with UACC-62 it was 23.5 µM (inactive); with MOLT-4 it was 28.4 µM (inactive); in the assay on CAKI-1, 55.6 µM (inactive); in the assay on HT-29 it was 37.9 µM (inactive); with SNB-19, 27.5 µM (inactive). Moreover, the GI50 with U-251 is 22.9 µM (inactive); in the assay with CCRF-CEM, 29.5 µM (inactive); in the assay with SN12C, 37.1 µM (inactive); in the assay on SNB-75 it was 21.1 µM (inactive); with OVCAR-8 it was 19.5 µM (inactive); in the assay with HCC 2998 it was 30.3 µM (inactive). Moreover, the GI50 was 21.1 µM (inactive) in the assay with SF-268; 49 µM (inactive) in the assay with SK-OV-3; 21.5 µM (inactive) in the assay on NCI-H522; 47.3 µM (inactive) with NCI-H23; 24.4 µM (inactive) in the assay with HL-60.

Regarding `C=C1C(=O)O[C@@H]2C[C@]3(C)[C@@H](C[C@H]12)[C@](C)(O)CC[C@@H]3O`, the GI50 in the assay with HOP-62 is > 100 µM (inactive); in the assay on UACC-62 it was 32.5 µM (inactive); in the assay on MOLT-4, 57.1 µM (inactive); with CAKI-1, 66.1 µM (inactive); in the assay with HT-29, 33.3 µM (inactive); with SNB-19 it was > 100 µM (inactive). The GI50 was > 100 µM (inactive) in the assay with U-251; 33.5 µM (inactive) with CCRF-CEM; 59.4 µM (inactive) with SN12C; 53.3 µM (inactive) in the assay with SNB-75; 36.6 µM (inactive) in the assay on OVCAR-8; > 100 µM (inactive) in the assay with HCC 2998. Besides, the GI50 in the assay on SF-268 is 42.4 µM (inactive); with Malme-3M, 71.3 µM (inactive); in the assay on SK-OV-3 it was > 100 µM (inactive); in the assay on NCI-H522 it was 34.8 µM (inactive); in the assay on NCI-H23 it was 30.1 µM (inactive).

In the case of `Cc1cc(O)nc(NNC(C#N)c2cccc(O)c2)n1` (stereo not drawn), the GI50 with HOP-62 is > 100 µM (inactive); in the assay with UACC-62, 75.7 µM (inactive); with MOLT-4, > 100 µM (inactive); with CAKI-1, > 100 µM (inactive); in the assay with HT-29, > 100 µM (inactive); in the assay with U-251 it was > 100 µM (inactive). The GI50 was > 100 µM (inactive) with CCRF-CEM; > 100 µM (inactive) in the assay with SN12C; > 100 µM (inactive) in the assay on SNB-75; > 100 µM (inactive) in the assay with OVCAR-8; > 100 µM (inactive) in the assay with SF-268; 79.1 µM (inactive) in the assay on Malme-3M. In addition, the GI50 in the assay with SK-OV-3, with NCI-H522, in the assay on NCI-H23 and in the assay with HL-60 was > 100 µM (inactive) throughout.

On to `COc1ccc(/C(Cl)=C(\CN(C)C)c2ccc(OC)c(OC)c2)cc1OC.[B]`, for which the GI50 in the assay on HOP-62 was 24.3 µM (inactive); in the assay on UACC-62 it was 3.94 µM (inactive); in the assay on MOLT-4, > 100 µM (inactive); in the assay with CAKI-1 it was > 100 µM (inactive); in the assay with HT-29, > 100 µM (inactive); in the assay with SNB-19, 17 µM (inactive). Moreover, the GI50 in the assay on U-251 was 8.61 µM (inactive); with CCRF-CEM it was > 100 µM (inactive); with SN12C, > 100 µM (inactive); in the assay on SNB-75 it was 2.5 µM (inactive); with OVCAR-8 it was > 100 µM (inactive); with HCC 2998 it was > 100 µM (inactive). The GI50 was > 100 µM (inactive) in the assay with SF-268, 14.2 µM (inactive) in the assay on SK-OV-3, 95.1 µM (inactive) in the assay with NCI-H23 and > 100 µM (inactive) with HL-60.

In the case of `CC1(n2nc(-c3ccccc3)n(-c3ccccc3)c2=O)CSC1`, the GI50 in the assay on HOP-62, with UACC-62, with MOLT-4, with CAKI-1, in the assay with HT-29 and with SNB-19 was > 100 µM (inactive) in each case. Besides, the GI50 in the assay with U-251, in the assay on CCRF-CEM, in the assay on SN12C, with SNB-75, with OVCAR-8 and with HCC 2998 was > 100 µM (inactive) in each case. Besides, the GI50 in the assay on SF-268, with SK-OV-3, in the assay on NCI-H522, in the assay on NCI-H23 and in the assay on HL-60 was > 100 µM (inactive) in each case.

In the case of `O=Cc1cn(C(=O)c2ccccc2)c2ccccc12`, the GI50 was > 100 µM (inactive) in the assay on HOP-62; > 100 µM (inactive) in the assay with UACC-62; 54.2 µM (inactive) in the assay with MOLT-4; 82.8 µM (inactive) with CAKI-1; 71.3 µM (inactive) in the assay with HT-29; > 100 µM (inactive) in the assay on U-251. The GI50 with CCRF-CEM was 43.2 µM (inactive); with SNB-75, 43.6 µM (inactive); in the assay with OVCAR-8 it was > 100 µM (inactive); with HCC 2998, > 100 µM (inactive); with Malme-3M, > 100 µM (inactive); with SK-OV-3, > 100 µM (inactive). Further, the GI50 was 80.4 µM (inactive) in the assay on NCI-H23 and 28.7 µM (inactive) in the assay on HL-60.
